# From US20220194911A1, “NOVEL COMPOUND FOR INHIBITING HISTONE ACETYLTRANSFERASE P300 AND ANTIFIBROTIC COMPOSITION COMPRISING SAME” (REFURE LIFE SCIENCE INC., priority 2019, published 2022)
# Target: HAT p300 (histone acetyltransferase p300) (Homo sapiens, UniProt Q09472)
# Assay: HAT activity kit assay (Biovision K332), inhibition of HAT activity of p300
# Type: biochemical
# Conditions: for HAT p300 activity inhibitory effect: diluted to 100 μM, FIG. 9
# Experimental: Candidates 1 to 67, which are HAT inhibitors manufactured based on the PCAF structure, and HAT-24, HAT-26, and HAT-28 were diluted to 100 μM, and the degree of inhibition of HAT activity of p300 (inhibitory activity) was then determined using a kit for measuring HAT activity (Biovision, Cat No. K332, U.S.A) according to the method provided by the manufacturer. Here, the tissue was treated with C646 (HAT inhibitor) as a positive control.
# Candidates 1 to 14 having a good HAT activity inhibitory effect in Section were diluted to concentrations of 0.5 μM, 1 μM, 10 μM, and 100 μM. Thereafter, the degree of inhibition of HAT activity was determined in the same manner as in Section.
# Synthesis Examples 1 to 19 were diluted to 100 μM, and the degree of inhibition of HAT p300 activity was then determined in the same manner as in Section. Here, the tissues were treated with C646 and Candidate 12 (HAT-12) as the control, instead of Synthesis Examples 1 to 19.
# Chain of HAT p300 (histone acetyltransferase p300) (Q09472 whole entry): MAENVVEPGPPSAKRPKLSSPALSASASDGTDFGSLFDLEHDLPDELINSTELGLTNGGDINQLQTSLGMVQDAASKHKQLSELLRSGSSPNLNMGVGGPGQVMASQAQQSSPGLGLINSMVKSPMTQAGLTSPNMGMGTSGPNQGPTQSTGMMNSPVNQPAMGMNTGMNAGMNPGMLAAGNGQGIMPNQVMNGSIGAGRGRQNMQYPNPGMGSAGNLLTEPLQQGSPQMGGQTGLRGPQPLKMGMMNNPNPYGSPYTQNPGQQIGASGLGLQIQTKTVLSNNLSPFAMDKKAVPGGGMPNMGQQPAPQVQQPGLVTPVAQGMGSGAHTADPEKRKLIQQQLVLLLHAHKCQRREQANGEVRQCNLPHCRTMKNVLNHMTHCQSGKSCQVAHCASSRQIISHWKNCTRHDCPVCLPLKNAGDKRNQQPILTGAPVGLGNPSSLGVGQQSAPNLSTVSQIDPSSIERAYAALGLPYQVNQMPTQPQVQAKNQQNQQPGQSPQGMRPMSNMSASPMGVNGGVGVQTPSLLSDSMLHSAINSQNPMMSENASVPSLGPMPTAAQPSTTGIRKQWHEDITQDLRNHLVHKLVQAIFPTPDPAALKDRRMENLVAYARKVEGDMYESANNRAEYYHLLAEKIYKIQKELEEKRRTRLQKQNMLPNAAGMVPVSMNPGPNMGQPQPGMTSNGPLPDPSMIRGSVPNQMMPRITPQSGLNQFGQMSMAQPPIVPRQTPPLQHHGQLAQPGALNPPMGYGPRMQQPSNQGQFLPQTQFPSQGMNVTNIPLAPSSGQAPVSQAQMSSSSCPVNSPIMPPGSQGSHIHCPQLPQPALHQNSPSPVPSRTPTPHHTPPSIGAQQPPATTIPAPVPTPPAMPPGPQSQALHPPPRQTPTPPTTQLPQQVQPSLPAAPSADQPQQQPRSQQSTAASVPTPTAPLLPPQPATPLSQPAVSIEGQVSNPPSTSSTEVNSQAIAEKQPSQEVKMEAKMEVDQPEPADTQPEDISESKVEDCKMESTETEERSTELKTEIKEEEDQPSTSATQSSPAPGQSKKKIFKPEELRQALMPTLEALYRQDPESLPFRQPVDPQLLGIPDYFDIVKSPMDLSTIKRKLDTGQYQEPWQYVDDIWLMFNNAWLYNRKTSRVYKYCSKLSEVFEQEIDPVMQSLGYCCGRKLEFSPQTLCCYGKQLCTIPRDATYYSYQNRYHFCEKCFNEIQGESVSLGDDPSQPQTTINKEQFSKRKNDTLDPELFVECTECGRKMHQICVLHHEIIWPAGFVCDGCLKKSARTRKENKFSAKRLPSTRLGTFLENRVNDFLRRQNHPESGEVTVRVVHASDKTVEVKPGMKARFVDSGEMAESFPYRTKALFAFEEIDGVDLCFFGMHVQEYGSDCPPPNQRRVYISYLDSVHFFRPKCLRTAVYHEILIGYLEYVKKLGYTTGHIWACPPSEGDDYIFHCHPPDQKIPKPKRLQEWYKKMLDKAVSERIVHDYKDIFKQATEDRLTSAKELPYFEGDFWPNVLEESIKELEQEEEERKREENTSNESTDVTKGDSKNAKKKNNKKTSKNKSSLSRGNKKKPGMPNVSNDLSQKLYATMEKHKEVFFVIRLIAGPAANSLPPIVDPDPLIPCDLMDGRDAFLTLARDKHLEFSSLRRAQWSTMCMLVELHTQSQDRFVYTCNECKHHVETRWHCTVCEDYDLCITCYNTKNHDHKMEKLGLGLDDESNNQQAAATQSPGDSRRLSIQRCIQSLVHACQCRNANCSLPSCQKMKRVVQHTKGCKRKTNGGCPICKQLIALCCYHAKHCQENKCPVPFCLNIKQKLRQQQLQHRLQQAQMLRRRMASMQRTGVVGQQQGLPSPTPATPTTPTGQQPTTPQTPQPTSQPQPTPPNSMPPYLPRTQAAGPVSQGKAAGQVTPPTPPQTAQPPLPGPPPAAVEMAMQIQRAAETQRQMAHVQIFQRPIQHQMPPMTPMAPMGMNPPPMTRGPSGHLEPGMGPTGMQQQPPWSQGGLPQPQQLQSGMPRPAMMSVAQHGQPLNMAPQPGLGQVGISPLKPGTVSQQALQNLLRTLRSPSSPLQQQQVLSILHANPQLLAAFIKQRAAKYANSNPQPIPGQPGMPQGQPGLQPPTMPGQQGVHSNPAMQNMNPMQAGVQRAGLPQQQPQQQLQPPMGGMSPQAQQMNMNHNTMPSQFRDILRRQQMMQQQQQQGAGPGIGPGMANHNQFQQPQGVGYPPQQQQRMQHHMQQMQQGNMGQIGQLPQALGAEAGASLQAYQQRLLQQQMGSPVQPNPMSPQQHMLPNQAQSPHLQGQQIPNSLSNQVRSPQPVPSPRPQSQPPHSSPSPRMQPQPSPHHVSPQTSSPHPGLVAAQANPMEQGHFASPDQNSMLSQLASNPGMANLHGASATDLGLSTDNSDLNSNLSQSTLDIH
SMILES,HAT p300 activity inhibitory effect,"IC50 (secondary screening, tested at 0.5, 1, 10 and 100 μM) [µM]"
COc1cc(/C=N/CCN2CCCCC2)cc(Cl)c1OCc1cccc(Cl)c1 [Candidate 12],approximately 80%,0.953
"COc1cc(/C=N/Cc2ccc(C(=O)O)cc2)cc(Cl)c1OCc1cccc(Cl)c1 [Synthesis Example 19, (E)-4-(((3-chloro-4-((3-chlorobenzyl)oxy)-5-methoxybenzylidene)amino)methyl)benzoic acid]",≥ 90%,–
